In patent US20250051356A1, “RIFABUTIN ANALOGS FOR THE TREATMENT OF DISEASE” (priority 2021, published 2025):
≈ marks a conversion by molar mass, not a printed value.

Tests used:
Assay type in all cases: cell-based
[1] = tested on: Enterococcus faecium (strain NCTC 12204); experiment: MIC against E. faecium; conditions: strain NCTC 12204; CAMHB
[2] = tested on: A. baumannii RpoB H535C mutant; experiment: microbe, parasite or virus in culture; conditions: RPMI + FCS
[3] = tested on: M. abscessus subsp. abscessus ATCC 19977; experiment: MIC against M. abscessus in Middlebrook 7H9 + ADC; conditions: 7H9 + ADC
[4] = tested on: Hemophilus influenzae (strain ATCC 49247); experiment: MIC against H. influenzae; conditions: Hemophilus test medium broth
[5] = tested on: Streptococcus pyogenes (strain IHMA 1117021); experiment: MIC against S. pyogenes; conditions: CAMHB + 5% laked horse blood
[6] = tested on: M. abscessus subsp. massiliense CCUG 48898; experiment: MIC against M. abscessus isolate in 7H9 + ADC; conditions: 7H9 + ADC
[7] = tested on: Mycobacterium tuberculosis (H37Rv, strain ATCC 27294)
A. baumannii Arr-2 = experiment: microbe, parasite or virus in culture; conditions: RPMI + FCS
[8] = tested on: Staphylococcus epidermidis (strain ATCC 12228); experiment: MIC against S. epidermidis; conditions: CAMHB
[9] = tested on: Streptococcus pneumoniae (strain ATCC 49619); experiment: MIC against S. pneumoniae; conditions: CAMHB + 5% laked horse blood
[10] = tested on: M. abscessus subsp. abscessus CCUG 71636; experiment: MIC against M. abscessus isolate in 7H9 + ADC; conditions: 7H9 + ADC
[11] = tested on: M. abscessus subsp. abscessus CCUG 71382; experiment: MIC against M. abscessus isolate in 7H9 + ADC; conditions: 7H9 + ADC
[12] = tested on: Enterococcus faecalis (strain ATCC 51575); experiment: MIC against E. faecalis; conditions: CAMHB
[13] = tested on: A. baumannii RpoB H535Q mutant; experiment: microbe, parasite or virus in culture; conditions: RPMI + FCS
[14] = tested on: M. smegmatis (strain ATCC 700084); experiment: MIC against M. smegmatis (90% growth inhibition, BacTiter-Glo); conditions: 7H9 + ADC, 20 hours
[15] = tested on: M. abscessus subsp. bolletii CCUG 50184; experiment: MIC against M. abscessus isolate in 7H9 + ADC; conditions: 7H9 + ADC
[16] = tested on: A. baumannii wild type (WT); experiment: MIC against A. baumannii isolate in RPMI + FCS; conditions: RPMI + FCS
[17] = tested on: A. baumannii RpoB H535L mutant; experiment: microbe, parasite or virus in culture; conditions: RPMI + FCS

## CO[C@H]1/C=C/O[C@@]2(C)Oc3c(C)c(O)c4c(c3C2=O)C(=O)C(N2CCOCC2)=C(NC(=O)/C(C)=C\C=C\[C@H](C)[C@H](O)[C@@H](C)[C@@H](O)[C@@H](C)[C@H](OC(=O)CC(=O)OCC2CCCN(C)C2)[C@@H]1C)C4=O (stereo partly drawn) [CGP 4832]
[1]
  MIC E. faecium: 2000 µg/mL (≈ 2140 µM)
[2]
  A. baumannii MIC in RPMI + FCS, RpoB H535C: >32 µg/mL
[3]
  M. abscessus MIC in 7H9 + ADC, abscessus ATCC 19977: 4 µg/mL
[4]
  MIC H. influenzae: 500 µg/mL (≈ 534 µM)
[5]
  MIC S. pyogenes: 8 µg/mL
[6]
  M. abscessus MIC in 7H9 + ADC, massiliense CCUG 48898: 4 µg/mL
[7]
  MIC M. tuberculosis: 3.6 µg/mL (≈ 3.85 µM)
A. baumannii Arr-2
  A. baumannii MIC in RPMI + FCS, Arr-2: 4 µg/mL
[8]
  MIC S. epidermidis: ≤2 µg/mL
[9]
  MIC S. pneumoniae: ≤2 µg/mL
[10]
  M. abscessus MIC in 7H9 + ADC, abscessus CCUG 71636: 2 µg/mL
[11]
  M. abscessus MIC in 7H9 + ADC, abscessus CCUG 71382: 8 µg/mL
[12]
  MIC E. faecalis: 2000 µg/mL (≈ 2140 µM)
[13]
  A. baumannii MIC in RPMI + FCS, RpoB H535Q: >32 µg/mL
[14]
  MIC M. smegmatis: 30 µg/mL
[15]
  M. abscessus MIC in 7H9 + ADC, bolletii CCUG 50184: 8 µg/mL
[16]
  A. baumannii MIC in RPMI + FCS, WT: 8 µg/mL
[17]
  A. baumannii MIC in RPMI + FCS, RpoB H535L: >32 µg/mL
